In patent EP4417602A1, “SUBSTITUTED PYRAZOLE CARBOXAMIDES, SALTS THEREOF AND THEIR USE AS HERBICIDALLY ACTIVE SUBSTANCES” (Bayer AG, priority 2023, dated 2024):

Assays:
[1] = system: AMARE; assay: B. Herbicidal post-emergence action on harmful plants (Tables B); type: in vivo, Amaranthus retroflexus; settings: application rate 1280 g/ha; Table B8
Procedure: (§1) Seeds of mono- and dicotyledonous weed plants were placed in plastic pots in sandy loam soil (doubly sown with in each case one species of mono- or dicotyledonous weed plants per pot), covered with soil and cultivated in a greenhouse under controlled growth conditions. 2 to 3 weeks after sowing, the test plants were treated at the one-leaf stage. The compounds of the invention, formulated in the form of wettable powders (WP) or as emulsion concentrates (EC), were applied onto the green parts of the plants as aqueous suspension or emulsion with addition of 0.5% additive at a water application rate of 600 liters per hectare (converted). After the test plants had been kept in the greenhouse under optimum growth conditions for about 3 weeks, the activity of the preparations was rated visually in comparison to untreated controls. For example, 100% activity = the plants have died, 0% activity = like control plants. Tables B1 to B12, below, show the effects of selected compounds of the general formula (I) according to table 1 on various harmful plants and an application rate corresponding to 1280 g/ha or below obtained by the experimental procedure mentioned above. Table B1a: post-emergence activity at 1280g/ha against ABUTH in %

[2] = system: MATIN; assay: A. Herbicidal pre-emergence action on harmful plants (Tables A); type: in vivo, Matricaria inodora; settings: visual grading after ca. 3 weeks vs untreated controls, 100% = plants have died off, 0% = as control plants
Text: (§2) Seeds of mono- and dicotyledonous weed plants were sown in plastic pots (double sowings with one species of mono- and one species of dicotyledonous weed plants per pot), in sandy loam, and covered with soil. The compounds according to the invention, formulated in the form of wettable powders (WP) or as emulsifiable concentrates (EC), were applied to the surface of the covering soil as aqueous suspension or emulsion, with the addition of 0.5% of an additive, at an application rate of 6001 of water per hectare (converted). Following treatment, the pots were placed in a greenhouse and kept under optimum growth conditions for the test plants. The visual grading of the damage to the test plants was carried out after ca. 3 weeks in comparison to untreated controls (herbicidal effect in percent (%): 100% effect = plants have died off, 0% effect = as control plants). Tables A1 to A12, below, show the effects of selected compounds of the general formula (I) according to table 1 on various harmful plants and an application rate corresponding to 1280 g/ha or below obtained by the experimental procedure mentioned above. Table A1: pre-emergence activity at 1280g/ha against ABUTH in %

[3] = system: POAAN; assay: as above; type: in vivo, Poa annua
Text: as §2

[4] = system: ECHCG; assay: as above; type: in vivo, Echinochloa crus-galli; settings: visual grading after ca. 3 weeks vs untreated controls, 100% = plants have died off, 0% = as control plants
Text: as §2

[5] = system: POAAN; assay: B. Herbicidal post-emergence action on harmful plants (Tables B); type: in vivo, Poa annua
Procedure: as §1

[6] = system: LOLRI; assay: A. Herbicidal pre-emergence action on harmful plants (Tables A); type: in vivo, Lolium rigidum; settings: visual grading after ca. 3 weeks vs untreated controls, 100% = plants have died off, 0% = as control plants
Text: as §2

[7] = system: SETVI; assay: as above; type: in vivo, Setaria viridis; settings: visual grading after ca. 3 weeks vs untreated controls, 100% = plants have died off, 0% = as control plants
Text: as §2

[8] = system: ALOMY; assay: as above; type: in vivo, Alopecurus myosuroides
Text: as §2

[9] = system: VERPE; assay: B. Herbicidal post-emergence action on harmful plants (Tables B); type: in vivo, Veronica persica; settings: application rate 1280 g/ha; Table B11a
Procedure: as §1

[10] = system: DIGSA; assay: A. Herbicidal pre-emergence action on harmful plants (Tables A); type: in vivo, Digitaria sanguinalis
Text: as §2

[11] = system: STEME; assay: as above; type: in vivo, Stellaria media; settings: visual grading after ca. 3 weeks vs untreated controls, 100% = plants have died off, 0% = as control plants
Text: as §2

[12] = system: MATIN; assay: B. Herbicidal post-emergence action on harmful plants (Tables B); type: in vivo, Matricaria inodora; settings: application rate 1280 g/ha; Table B4a
Procedure: as §1

[13] = system: AMARE; assay: A. Herbicidal pre-emergence action on harmful plants (Tables A); type: in vivo, Amaranthus retroflexus; settings: application rate 1280 g/ha; visual grading after ca. 3 weeks vs untreated controls; 100% = plants have died off, 0% = as control plants
Text: as §2

[14] = system: ECHCG; assay: B. Herbicidal post-emergence action on harmful plants (Tables B); type: in vivo, Echinochloa crus-galli; settings: application rate 1280 g/ha; Table B2a
Procedure: as §1

[15] = application rate 320 g/ha, Table A7b
[16] = application rate 1280 g/ha, visual grading after ca. 3 weeks vs untreated controls, 100% = plants have died off, 0% = as control plants
[17] = application rate 320 g/ha, Table B7b
[18] = application rate 1280 g/ha, Table B7a
[19] = application rate 80 g/ha, Table A7c
[20] = application rate 1280 g/ha, Table A9a
[21] = application rate 320 g/ha, Table A12b
[22] = application rate 1280 g/ha, Table A12a

SMILES	post-emergence activity against AMARE [1] [%]	pre-emergence activity against MATIN ([2]; application rate 1280 g/ha) [%]	pre-emergence activity against POAAN [3, 15] [%]	pre-emergence activity against POAAN [3, 16] [%]	pre-emergence activity against ECHCG ([4]; application rate 1280 g/ha) [%]	post-emergence activity against POAAN [5, 18] [%]	pre-emergence activity against LOLRI ([6]; application rate 1280 g/ha) [%]	pre-emergence activity against SETVI ([7]; application rate 1280 g/ha) [%]	pre-emergence activity against POAAN [3, 19] [%]	pre-emergence activity against ALOMY [8, 20] [%]	pre-emergence activity against ECHCG ([4]; application rate 320 g/ha) [%]	post-emergence activity against VERPE [9] [%]	pre-emergence activity against DIGSA [10, 21] [%]	pre-emergence activity against DIGSA [10, 22] [%]	pre-emergence activity against STEME ([11]; application rate 1280 g/ha) [%]	pre-emergence activity against LOLRI ([6]; application rate 320 g/ha) [%]	also measured
COCc1nn(C)cc1C(=O)N1CCC1Cc1ccccc1Cl (racemic) [Example I-113]	90	90	100	100	90	–	–	–	–	–	–	–	–	–	–	–	–
COCc1nn(C)cc1C(=O)N1CCCC1Cc1ncccc1F (racemic) [Example I-015]	–	–	100	100	100	90	100	90	100	90	90	90	–	–	–	–	post-emergence activity against POAAN [5, 17]: 90%
CCOCc1nn(C)cc1C(=O)N1CCC1Cc1ccccc1Cl (racemic) [Example I-106]	90	–	100	100	100	–	90	100	–	–	90	–	90	100	90	–	pre-emergence activity against SETVI ([7]; application rate 80 g/ha): 90%; pre-emergence activity against SETVI ([7]; application rate 320 g/ha): 100%; pre-emergence activity against ECHCG ([4]; application rate 80 g/ha): 90%
C=CCOCc1c(C(=O)N2CCCC2Cc2ccccc2F)cnn1C (single isomer, unassigned) [Example I-144]	90	–	100	100	100	–	–	90	100	–	90	–	–	90	90	–	–
COCc1nn(CCC(OC)OC)cc1C(=O)N1CCCC1Cc1ccccc1F (racemic) [Example I-048]	90	–	90	100	90	–	90	–	–	–	–	–	–	90	–	–	–
COCc1nn(C(=O)NC2CC2)cc1C(=O)N1CCCC1Cc1ccccc1F (racemic) [Example I-036]	–	90	90	100	100	–	90	90	90	90	90	90	90	100	90	90	pre-emergence activity against STEME ([11]; application rate 320 g/ha): 90%
COCc1nn(C)cc1C(=O)N1CCCC1Cc1c(F)cccc1F (racemic) [Example I-081]	–	90	100	100	100	100	100	100	100	100	100	–	100	100	90	100	pre-emergence activity against MATIN ([2]; application rate 320 g/ha): 90%; post-emergence activity against POAAN ([5]; application rate 80 g/ha, Table B7c): 90%; post-emergence activity against POAAN [5, 17]: 90%; pre-emergence activity against DIGSA ([10]; application rate 80 g/ha, Table A12c): 90%; post-emergence activity against MATIN [12]: 90%; pre-emergence activity against LOLRI ([6]; application rate 80 g/ha): 100%; pre-emergence activity against SETVI ([7]; application rate 80 g/ha): 90%; pre-emergence activity against SETVI ([7]; application rate 320 g/ha): 100%; pre-emergence activity against ALOMY ([8]; application rate 320 g/ha, Table A9b): 90%; pre-emergence activity against ECHCG ([4]; application rate 80 g/ha): 90%; pre-emergence activity against AMARE [13]: 90%
COCc1c(C(=O)N2CCCC2Cc2ccc(Cl)cc2Cl)cnn1C (racemic) [Example I-166]	–	–	90	100	90	90	100	90	90	–	–	90	–	–	90	–	post-emergence activity against MATIN [12]: 90%; post-emergence activity against ECHCG [14]: 90%; pre-emergence activity against AMARE [13]: 90%
CCOCc1nn(C)cc1C(=O)N1CCC1Cc1c(F)cccc1Cl (racemic) [Example I-110]	100	90	90	100	100	–	100	100	–	–	90	–	90	90	90	90	–
